For 60 compounds, IC50 results are on record in US8759366B2, “Aminopyrimidines as SYK inhibitors” (Merck Sharp & Dohme Corp., priority 2009, dated 2014).

pIC50: −log10 of the molar value.

One assay concerns the target recombinant human SYK (GST-hSYK fusion protein) (Homo sapiens (Human), UniProt P43405). The conditions noted are these: read-out: rhSYK Activity; Table 15.
Excerpt: Homogeneous Time-Resolved Fluorescence (HTRF) Assay for the Recombinant Human SYK Enzyme:
As to `OC(c1ncc(-c2cccc(Nc3nccc(C(F)(F)F)n3)c2)s1)(C1CC1)C1CC1` [Example 15-1], the pIC50 is greater than 7.00.

The assay is the same for the next values; noted with them: read-out: rhSYK Activity; Table 24.
In the case of `CC1(c2ncc(-c3cc(Nc4nccc(C(F)(F)F)n4)cc(N4CCOCC4)c3)s2)OCCO1` [Example 24-2], the pIC50 was greater than 7.00.

The assay is the same for the next values; noted with them: read-out: rhSYK Activity; Table 26.
On to `Cc1cc(Nc2nccc(C(F)(F)F)n2)cc(-c2cnc(C3(F)CCC(C(=O)O)CC3)s2)c1` (stereo not drawn) [Example 26-1], for which the pIC50 is greater than 7.00.

With `CCOC(=O)C1CCC(F)(c2ncc(-c3cccc(Nc4nccc(C(F)(F)F)n4)c3)s2)CC1` (stereo not drawn) [Example 26-5], the pIC50 is 5.00 to 6.00.

On to `CCOC(=O)C1CCC(F)(c2ncc(-c3cccc(Nc4nccc(C(F)(F)F)n4)c3)s2)CC1` (stereo not drawn) [Example 26-4], for which the pIC50 is 6.00 to 7.00.

Staying with this assay, now noted: read-out: rhSYK Activity; Table 33-A.
As to `CCOC(=O)C1CCC(O)(c2ncc(-c3cc(C)cc(Nc4nccc(C(F)(F)F)n4)c3)s2)CC1` (stereo not drawn) [33A-7], the pIC50 is greater than 7.00.

As for `Cc1cc(Nc2ncc(F)c(C3CC3)n2)cc(-c2cnc(C3(O)CCC(C(=O)O)CC3)s2)c1` (stereo not drawn) [33A-1], the pIC50 is greater than 7.00.

Take `Cc1cc(Nc2ncc(F)c(C3CC3)n2)cc(-c2cnc(C3(O)CCC(C(=O)O)CC3)s2)c1` (stereo not drawn) [33A-2]: the pIC50 is greater than 7.00.

Staying with this assay, now noted: read-out: rhSYK Activity; Table 33B.
For the compound `CCC1C(C)C(C(=O)O)CCC1(O)c1ncc(-c2cc(C)cc(Nc3nccc(C(F)(F)F)n3)c2)s1` (stereo not drawn) [Example 33B-40], the pIC50 was greater than 7.00.

As for `Cc1cc(Nc2nccc(C)n2)cc(-c2cnc(C3(O)CCC(C(=O)O)C(c4ccsc4)C3)s2)c1` (stereo not drawn) [Example 33B-30], the pIC50 was 6.00 to 7.00.

As to `Cc1cc(Nc2nccc(C(F)(F)F)n2)cc(-c2cnc(C3(O)CCC(C(=O)O)C4(CC4)C3)s2)c1` (stereo not drawn) [Example 33B-17], the pIC50 is greater than 7.00.

In the case of `CCC1C(C)C(C(=O)O)CCC1(O)c1ncc(-c2cc(C)cc(Nc3nccc(C(F)(F)F)n3)c2)s1` (single isomer, unassigned) [Example 33B-41], the pIC50 was greater than 7.00.

In the case of `Cc1cc(Nc2nccc(C(F)(F)F)n2)cc(-c2cnc(C3(O)CCC(C(=O)O)C(C)C3C)s2)c1` (single isomer, unassigned) [Example 33B-39], the pIC50 is greater than 7.00.

`Cc1cc(Nc2nccc(C(F)(F)F)n2)cc(-c2cnc(C3(O)CC(C(=O)O)C(C)(C)C3)s2)c1` (single isomer, unassigned) [Example 33B-5]: the pIC50 was greater than 7.00.

On to `Cc1cc(Nc2nccc(C)n2)cc(-c2cnc(C3(O)CCC(C(=O)O)C(C)C3)s2)c1` (single isomer, unassigned) [Example 33B-33], for which the pIC50 was greater than 7.00.

Still in this assay, the particulars now being: read-out: rhSYK Activity; Table 33C.
`Cc1cc(Nc2nccc(C)n2)cc(-c2cnc(C3(O)C4CC5CC3CC(C(=O)O)(C5)C4)s2)c1` (stereo not drawn) [Example 33C-20]: the pIC50 is greater than 7.00.

The same assay, now with this note: read-out: rhSYK Activity; Table 33D.
As to `Cc1cc(Nc2nccc(C(F)(F)F)n2)cc(-c2cnc(C(C)(O)/C=C/C(C)(C)C(=O)O)s2)c1` (stereo not drawn) [Example 33D-5], the pIC50 is greater than 7.00.

`COC(=O)C(C)(C)/C=C/C(C)(O)c1ncc(-c2cc(C)cc(Nc3nccc(C(F)(F)F)n3)c2)s1` (stereo not drawn) [Example 33D-6]: the pIC50 is greater than 7.00.

Still in this assay, the particulars now being: read-out: rhSYK Activity; Table 36A.
On to `Cc1cc(Nc2nccc(C(F)(F)F)n2)cc(-c2cnc(C3CCCCC(=O)C3)s2)c1` (stereo not drawn) [Example 36A-10], for which the pIC50 is greater than 7.00.

Consider `Cc1cc(Nc2nccc(C(F)(F)F)n2)cc(-c2cnc(C3CCCC(=O)C3)s2)c1` (stereo not drawn) [Example 36A-8], for which the pIC50 is greater than 7.00.

`O=C(O)C1CCC(c2ncc(-c3cccc(Nc4nccc(C(F)(F)F)n4)c3)s2)CC1` (stereo not drawn) [Example 36A-4]: the pIC50 was greater than 7.00.

Staying with this assay, now noted: read-out: rhSYK Activity; Table 113A.
On to `CCOC(=O)C1CCC(O)(c2ncc(-c3cc(C)cc(Nc4nccc(OCCCOC)n4)c3)s2)CC1C` (stereo not drawn) [Example 113A-47], for which the pIC50 is 6.00 to 7.00.

Take `COC(=O)[C@H]1CC[C@](O)(c2ncc(-c3cc(C)cc(Nc4nccc(C(F)(F)F)n4)c3)s2)CC1(C)C` [Example 113A-65]: the pIC50 is greater than 7.00.

The assay is the same for the next values; noted with them: read-out: rhSYK Activity; Table 113C.
`COc1nc(Nc2cc(C)cc(-c3cnc(C4(O)CCNC(=O)CC4)s3)c2)ncc1Cl` (stereo not drawn) [113C-11]: the pIC50 is greater than 7.00.

Regarding `Cc1cc(Nc2ncc(F)c(C)n2)cc(-c2cnc(C3(O)CCNC(=O)CC3)s2)c1` (stereo not drawn) [113C-1], the pIC50 was greater than 7.00.

As to `Cc1cc(Nc2nccc(C(C)(C)C)n2)cc(-c2cnc(C3(O)CCNC(=O)CC3)s2)c1` (stereo not drawn) [113C-9], the pIC50 was greater than 7.00.

`Cc1cc(Nc2nccc(C3CC3)n2)cc(-c2cnc(C3(O)CCCN(C(=O)OC(C)(C)C)CC3)s2)c1` (single isomer, unassigned) [113C-17]: the pIC50 is greater than 7.00.

With `Cc1cc(Nc2nccc(C(C)C)n2)cc(-c2cnc(C3(O)CCCN(C(=O)OC(C)(C)C)CC3)s2)c1` (stereo not drawn) [113C-19], the pIC50 is greater than 7.00.

As for `Cc1cc(Nc2nccc(OC(C)C)n2)cc(-c2cnc(C3(O)CCNC(=O)CC3)s2)c1` (stereo not drawn) [113C-10], the pIC50 is greater than 7.00.

The same assay, now with this note: read-out: rhSYK Activity; Table 116A.
Take `Cc1cc(Nc2ncc(Cl)c(O)n2)cc(-c2cnc(C3(O)CCC(C(=O)O)C(C)(C)C3)s2)c1` (stereo not drawn) [116A-29]: the pIC50 is 6.00 to 7.00.

The assay is the same for the next values; noted with them: read-out: rhSYK Activity; Table 117; HTRF assay, IC50 class symbols.
`Cc1cc(Nc2nccc(C(F)(F)F)n2)cc(-c2cnc(C3(O)CCC(C)(C(N)=O)CC3)s2)c1` (stereo not drawn) [Example 117-3]: the pIC50 is greater than 7.00.

Still in this assay, the particulars now being: read-out: rhSYK Activity; Table 119; HTRF assay, IC50 class symbols.
As for `Cc1cc(Nc2nccc(C(F)(F)F)n2)cc(-c2cnc(C3(O)CCC(C(=O)NCc4cncnc4)CC3)s2)c1` (stereo not drawn) [Example 119-57], the pIC50 was greater than 7.00.

In the case of `Cc1cc(Nc2nccc(C(F)(F)F)n2)cc(-c2cnc(C3(O)CCC(C(=O)NCCN4CCCCC4=O)CC3)s2)c1` (stereo not drawn) [Example 119-89], the pIC50 was greater than 7.00.

For the compound `Cc1cc(Nc2nccc(C(F)(F)F)n2)cc(-c2cnc(C3(O)CCC(C(=O)NCc4ncon4)CC3)s2)c1` (stereo not drawn) [Example 119-45], the pIC50 was greater than 7.00.

Consider `Cc1cc(Nc2nccc(C(F)(F)F)n2)cc(-c2cnc(C3(O)CCC(C(=O)NCc4cnoc4)CC3)s2)c1` (stereo not drawn) [Example 119-41], for which the pIC50 was greater than 7.00.

For `Cc1cc(Nc2nccc(C(F)(F)F)n2)cc(-c2cnc(C3(O)CCC(C(=O)NO)CC3)s2)c1` (stereo not drawn) [Example 119-16], the pIC50 is greater than 7.00.

As for `Cc1cc(Nc2nccc(C(F)(F)F)n2)cc(-c2cnc(C3(O)CCC(C(=O)NCc4cc(O)no4)CC3)s2)c1` (stereo not drawn) [Example 119-65], the pIC50 was greater than 7.00.

Take `Cc1cc(Nc2nccc(C(F)(F)F)n2)cc(-c2cnc(C3(O)CCC(C(=O)NCc4ccns4)CC3)s2)c1` (stereo not drawn) [Example 119-66]: the pIC50 was greater than 7.00.

Take `Cc1cc(Nc2nccc(C(F)(F)F)n2)cc(-c2cnc(C3(O)CCC(C(=O)N4CCC5(CC4)OCCO5)CC3)s2)c1` (stereo not drawn) [Example 119-140]: the pIC50 is greater than 7.00.

Regarding `Cc1cc(Nc2nccc(C(F)(F)F)n2)cc(-c2cnc(C3(O)CCC(C(=O)NCCN4CCNC4=O)CC3)s2)c1` (stereo not drawn) [Example 119-79], the pIC50 was greater than 7.00.

Regarding `Cc1cc(Nc2nccc(C)n2)cc(-c2cnc(C3(O)CCC(C(=O)NCCCN4CCCC4=O)C(C)C3)s2)c1` (stereo not drawn) [Example 119-116], the pIC50 is greater than 7.00.

Regarding `Cc1cc(Nc2nccc(C(F)(F)F)n2)cc(-c2cnc(C3(O)CCC(C(=O)NCCN4CCCC4=O)CC3)s2)c1` (stereo not drawn) [Example 119-78], the pIC50 was greater than 7.00.

The assay is the same for the next values; noted with them: read-out: rhSYK Activity; recombinant human SYK, HTRF assay; class symbols.
For `Cc1cc(Nc2nccc(C(F)(F)F)n2)cc(-c2cnc(C3(O)CCCN(CC(=O)OC(C)(C)C)CC3)s2)c1` (stereo not drawn) [Example 54A-89], the pIC50 was greater than 7.00.

As to `CCCCNC(=O)N1CCC(O)(c2ncc(-c3cc(C)cc(Nc4nccc(C(F)(F)F)n4)c3)s2)CC1` [Example 54A-61], the pIC50 was greater than 7.00.

For the compound `Cc1cc(Nc2nccc(C(C)C)n2)cc(-c2cnc(C3(O)CCCN(C(=O)c4cnnn4C)CC3)s2)c1` (stereo not drawn) [Example 54D-17], the pIC50 was greater than 7.00.

Regarding `COc1nc(Nc2cc(C)cc(-c3cnc(C4(O)CCN(C(N)=O)C4)s3)c2)ncc1F` (stereo not drawn) [Example 54B-18], the pIC50 was greater than 7.00.

Turning to `Cc1cc(Nc2ncc(Cl)c(C)n2)cc(-c2cnc(C3(O)CCN(C(N)=O)C3)s2)c1` (stereo not drawn) [Example 54B-17], the pIC50 is greater than 7.00.

`Cc1cc(Nc2nccc(C(F)(F)F)n2)cc(-c2cnc(C3(O)CCN(C(=O)Nc4cc(Cl)ccc4C)CC3)s2)c1` [Example 54A-68]: the pIC50 is greater than 7.00.

Consider `Cc1cc(Nc2nccc(C(F)(F)F)n2)cc(-c2cnc(C3(O)CN(C(N)=O)C3)s2)c1` [Example 54B-1], for which the pIC50 is greater than 7.00.

In the case of `Cc1cc(Nc2nccc(C(F)(F)F)n2)cc(-c2cnc(C3(O)CCN(C4CC=C(C(=O)O)CC4)C3)s2)c1` (stereo not drawn) [Example 54B-33], the pIC50 was greater than 7.00.

Regarding `Cc1cc(Nc2nccc(C(F)(F)F)n2)cc(-c2cnc(C3(O)CCN(C(=O)c4ocnc4C)C3)s2)c1` (stereo not drawn) [Example 54B-31], the pIC50 is greater than 7.00.

Regarding `Cc1cc(Nc2nccc(C(C)C)n2)cc(-c2cnc(C3(O)CCCN(C(=O)c4nnnn4C)CC3)s2)c1` (stereo not drawn) [Example 54D-18], the pIC50 is greater than 7.00.

For `Cc1cc(Nc2nccc(C(F)(F)F)n2)cc(-c2cnc(C3(O)CCN(C(=O)Nc4ccc(C)cc4C)CC3)s2)c1` [Example 54A-66], the pIC50 is greater than 7.00.

With `Cc1ccc(NC(=O)N2CCC(O)(c3ncc(-c4cc(C)cc(Nc5nccc(C(F)(F)F)n5)c4)s3)CC2)cc1` [Example 54A-62], the pIC50 is greater than 7.00.

Regarding `Cc1cc(Nc2nccc(C(F)(F)F)n2)cc(-c2cnc(C3(O)CCCN(CCC(=O)O)CC3)s2)c1` (stereo not drawn) [Example 54A-84], the pIC50 was greater than 7.00.

With `Cc1cc(Nc2nccc(C(F)(F)F)n2)cc(-c2cnc(C3(O)CCN(C(=O)Nc4ccc(Cl)cc4C)CC3)s2)c1` [Example 54A-69], the pIC50 was greater than 7.00.

The assay is the same for the next values; noted with them: read-out: rhSYK activity.
Turning to `Cc1cc(Nc2nccc(OC3CCNCC3)n2)cc(-c2cnc(C3(NC(=O)NC(N)=O)CCC3)s2)c1` [Example 65-5], the pIC50 was greater than 7.00.

As for `Cc1cc(Nc2nccc(C(F)(F)F)n2)cc(-c2cnc(C3(O)CCC(NC(=O)C(CO)(CO)CO)CC3)s2)c1` (stereo not drawn) [Example 54E-34], the pIC50 was greater than 7.00.

Turning to `Cc1cc(Nc2nccc(C(F)(F)F)n2)cc(-c2cnc(C3(O)CCC(NC(=O)[C@H](C)O)CC3)s2)c1` (stereo in doubt) [Example 54E-2], the pIC50 is greater than 7.00.

As for `Cc1cc(Nc2nccc(OC3CCNCC3)n2)cc(-c2cnc(C3(NC(N)=O)CCC3)s2)c1` [Example 64-5], the pIC50 was greater than 7.00.
